{
  "source": "patent US11008323B2",
  "about": "“Substituted tricyclic 1,4-benzodiazepinone derivatives as allosteric modulators of group II metabotropic glutamate receptors” (Domain Therapeutics, priority 2015, dated 2021)",
  "note": "Where a name gives a salt, the structure may show the parent alone.",
  "data": [
    {"units": {"melting point": "°C"}, "values": [
      {"molecule": "CN(C)c1ncccc1-c1ccc2c(c1)-n1cc(-c3ccccc3)cc1C(=O)N(C)C21CC1", "note": "(as salt: hydrochloride) [Example 119, 5-Methyl-2-phenyl-9-(2-dimethylamino-pyridin-3-yl)-spiro[benzo[f]pyrrolo[1,2-a][1,4]diazepine-6,1′-cyclopropan]-4(5H)-one]", "melting point": "209 to 213"},
      {"molecule": "CCN1Cc2ccc(-c3cccnc3C)cc2-n2cc(-c3ccccc3)nc2C1=O", "note": "(as salt: hydrochloride) [Example 167, 5-Ethyl-9-(2-methylpyridin-3-yl)-2-phenyl-5,6-dihydro-4H-benzo[f]imidazo[1,2-a][1,4]diazepin-4-one]", "melting point": "200 to 220"},
      {"molecule": "CN1C(=O)c2cc(C(=O)O)cn2-c2cc(-c3ccc(F)nc3)ccc2C12CC2", "note": "[Example 177, 5-Methyl-9-(6-fluoro-pyridin-3-yl)-4-oxo-4,5-dihydrospiro[benzo[f]pyrrolo[1,2-a][1,4]diazepine-6,1′-cyclopropane]-2-carboxylic acid]", "melting point": "> 250"},
      {"molecule": "Cc1cc(-c2ccc3c(c2)-n2cc(-c4ccccc4)cc2C(=O)N(C)C32CC2)cc(C)n1", "note": "(as salt: hydrochloride) [Example 97, 5-Methyl-2-phenyl-9-(2,6-dimethyl-pyridin-4-yl)-spiro[benzo[f]pyrrolo[1,2-a][1,4]diazepine-6,1′-cyclopropan]-4(5H)-one]", "melting point": "227 to 234"},
      {"molecule": "Cc1ncccc1-c1ccc2c(c1)-n1cc(-c3ccncc3)cc1C(=O)N(C)C21CC1", "note": "(as salt: hydrochloride) [Example 145]", "melting point": "> 250"},
      {"molecule": "Cc1ncccc1-c1ccc2c(c1)-n1cccc1C(=O)N(C)C2(C)C", "note": "(as salt: hydrochloride) [Example 223, 5,6,6-Trimethyl-9-(2-methyl-pyridin-3-yl)-5,6-dihydro-benzo[f]pyrrolo[1,2-a][1,4]diazepin-4-one]", "melting point": "230 to 250"},
      {"molecule": "Cc1ncccc1-c1ccc2c(c1)-n1cc(-c3ccccc3F)cc1C(=O)N(C)C21CC1", "note": "(as salt: hydrochloride) [Example 151]", "melting point": "185 to 190"},
      {"molecule": "Cc1ncccc1-c1ccc2c(c1F)-n1cccc1C(=O)N(C)C21CC1", "note": "(as salt: hydrochloride) [Example 75, 10-Fluoro-5-methyl-9-(2-methyl-pyridin-3-yl)-spiro[benzo[f]pyrrolo[1,2-a][1,4]diazepine-6,1′-cyclopropan]-4(5H)-one]", "melting point": "166 to 184"},
      {"molecule": "Cc1ncccc1-c1ccc2c(c1)-n1c(F)ccc1C(=O)N(C)C21CC1", "note": "(as salt: hydrochloride) [Example 81, 9-(2-Methyl-pyridin-3-yl)-1-fluoro-5-methyl-spiro[benzo[f]pyrrolo[1,2-a][1,4]diazepine-6,1′-cyclopropan]-4(5H)-one]", "melting point": "150 to 158"},
      {"molecule": "Cc1ncccc1-c1ccc2c(c1)-n1cc(N(C)C)cc1C(=O)N(C)C21CC1", "note": "(as salt: hydrochloride) [Example 154]", "melting point": "120 to 134"},
      {"molecule": "CCCc1ncccc1-c1ccc2c(c1)-n1cccc1C(=O)N(C)C21CC1", "note": "(as salt: hydrochloride) [Example 61, 5-Methyl-9-(2-propylpyridin-3-yl)-spiro[benzo[f]pyrrolo[1,2-a][1,4]diazepine-6,1′-cyclopropan]-4(5H)-one]", "melting point": "150 to 157"},
      {"molecule": "Cc1cnccc1-c1ccc2c(c1)-n1cccc1C(=O)N(C)C21CC1", "note": "(as salt: hydrochloride) [Example 38, 5-Methyl-9-(3-methylpyridin-4-yl)-spiro[benzo[f]pyrrolo[1,2-a][1,4]diazepine-6,1′-cyclopropan]-4(5H)-one]", "melting point": "> 250"},
      {"molecule": "Cc1ncccc1-c1ccc2c(c1)-n1cc(-c3ccc(F)cc3)cc1C(=O)N(C)C21CC1", "note": "(as salt: hydrochloride) [Example 150]", "melting point": "226 to 230"},
      {"molecule": "Cc1cc(-c2ccc3c(c2)-n2cccc2C(=O)N(C)C32CC2)ccn1", "note": "(as salt: hydrochloride) [Example 26, 5-Methyl-9-(2-methylpyridin-4-yl)-spiro[benzo[f]pyrrolo[1,2-a][1,4]diazepine-6,1′-cyclopropan]-4(5H)-one]", "melting point": "183 to 193"},
      {"molecule": "Cc1cc2n(c1)-c1cc(-c3cccnc3C)ccc1C1(CC1)N(C)C2=O", "note": "(as salt: hydrochloride) [Example 144]", "melting point": "162 to 175"},
      {"molecule": "Cc1ncccc1-c1cc(F)c2c(c1)-n1cccc1C(=O)N(C)C21CC1", "note": "(as salt: hydrochloride) [Example 73, 7-Fluoro-5-methyl-9-(2-methyl-pyridin-3-yl)-spiro[benzo[f]pyrrolo[1,2-a][1,4]diazepine-6,1′-cyclopropan]-4(5H)-one]", "melting point": "174 to 188"},
      {"molecule": "CC1c2ccc(-c3ccc(N(C)C)nc3)cc2-n2cccc2C(=O)N1C", "note": "(stereo not shown) (as salt: hydrochloride) [Example 219, 9-(6-Dimethylamino-pyridin-3-yl)-5,6-dimethyl-5,6-dihydro-benzo[f]pyrrolo[1,2-a][1,4]diazepin-4-one]", "melting point": "145 to 162"},
      {"molecule": "CN1C(=O)c2cccn2-c2cc(-c3ccncc3)ccc2C12CC2", "note": "(as salt: hydrochloride) [Example 22, 5-Methyl-9-(pyridin-4-yl)-spiro[benzo[f]pyrrolo[1,2-a][1,4]diazepine-6,1′-cyclopropan]-4(5H)-one]", "melting point": "> 250"},
      {"molecule": "Cc1ccncc1-c1ccc2c(c1)-n1cc(-c3ccccc3)cc1C(=O)N(C)C21CC1", "note": "(as salt: hydrochloride) [Example 101, 5-Methyl-2-phenyl-9-(4-methyl-pyridin-3-yl)-spiro[benzo[f]pyrrolo[1,2-a][1,4]diazepine-6,1′-cyclopropan]-4(5H)-one]", "melting point": "205 to 217"},
      {"molecule": "Cc1ncccc1-c1ccc2c(c1)-n1cc(-c3ccccc3)cc1C(=O)N(C)C21CC1", "note": "(as salt: hydrochloride) [Example 95, 5-Methyl-2-phenyl-9-(2-methyl-pyridin-3-yl)-spiro[benzo[f]pyrrolo[1,2-a][1,4]diazepine-6,1′-cyclopropan]-4(5H)-one]", "melting point": "174 to 180"},
      {"molecule": "Cc1ncccc1-c1ccc2c(c1)-n1cc(-c3ccnn3C)cc1C(=O)N(C)C21CC1", "note": "(as salt: hydrochloride) [Example 160]", "melting point": "229 to 237"},
      {"molecule": "CN1C(=O)c2cccn2-c2cc(-c3cccnc3)ccc2C12CC2", "note": "(as salt: hydrochloride) [Example 23, 5-Methyl-9-(pyridin-3-yl)-spiro[benzo[f]pyrrolo[1,2-a][1,4]diazepine-6,1′-cyclopropan]-4(5H)-one]", "melting point": "> 250"},
      {"molecule": "Cc1ncccc1-c1ccc2c(c1)-n1cc(-c3nccs3)cc1C(=O)N(C)C21CC1", "note": "(as salt: hydrochloride) [Example 157]", "melting point": "240 to 245"},
      {"molecule": "CN(C)c1ccc(-c2ccc3c(c2)-n2cc(-c4ccccc4)cc2C(=O)N(C)C32CC2)cn1", "note": "(as salt: hydrochloride) [Example 114, 5-Methyl-2-phenyl-9-(6-dimethylamino-pyridin-3-yl)-spiro[benzo[f]pyrrolo[1,2-a][1,4]diazepine-6,1′-cyclopropan]-4(5H)-one]", "melting point": "200 to 208"},
      {"molecule": "Cc1ncccc1-c1ccc2c(c1)-n1cc(-c3cc[nH]n3)cc1C(=O)N(C)C21CC1", "note": "(as salt: hydrochloride) [Example 146]", "melting point": "240 to 250"},
      {"molecule": "CCc1cc2n(c1)-c1cc(-c3cccnc3C)ccc1C1(CC1)N(C)C2=O", "note": "(as salt: hydrochloride) [Example 197]", "melting point": "165 to 175"},
      {"molecule": "Cc1ncccc1-c1ccc2c(c1)-n1cc(-c3ncc[nH]3)cc1C(=O)N(C)C21CC1", "note": "(as salt: hydrochloride) [Example 184]", "melting point": "> 250"},
      {"molecule": "CCc1ncccc1-c1ccc2c(c1)-n1cc(C)cc1C(=O)N(C)C21CC1", "note": "(as salt: hydrochloride) [Example 199]", "melting point": "179 to 184"},
      {"molecule": "CCc1ncccc1-c1ccc2c(c1)-n1cc(CO)cc1C(=O)N(C)C21CC1", "note": "(as salt: hydrochloride) [Example 203]", "melting point": "> 250"},
      {"molecule": "Cc1ncccc1-c1cccc2c1-n1cccc1C(=O)N(C)C21CC1", "note": "(as salt: hydrochloride) [Example 92, 10-(2-Methyl-pyridin-3-yl)-5-methyl-spiro[benzo[f]pyrrolo[1,2-a][1,4]diazepine-6,1′-cyclopropan]-4(5H)-one]", "melting point": 250},
      {"molecule": "Cc1ccc(-c2ccc3c(c2)-n2nc(-c4ccccc4)cc2C(=O)N(C)C32CC2)c(C)n1", "note": "(as salt: hydrochloride) [Example 126, 9-(2,6-Dimethyl-pyridin-3-yl)-5-methyl-2-phenyl-spiro[benzo[f]pyrazolo[1,5-a][1,4]diazepine-6,1′-cyclopropan]-4(5H)-one]", "melting point": "> 250"},
      {"molecule": "Cc1ccc(-c2ccc3c(c2)-n2cc(-c4nccs4)cc2C(=O)N(C)C32CC2)cn1", "note": "(as salt: hydrochloride) [Example 158]", "melting point": "228 to 239"},
      {"molecule": "Cc1cncc(-c2ccc3c(c2)-n2cc(-c4ccccc4)cc2C(=O)N(C)C32CC2)c1", "note": "(as salt: hydrochloride) [Example 98, 5-Methyl-2-phenyl-9-(5-methyl-pyridin-3-yl)-spiro[benzo[f]pyrrolo[1,2-a][1,4]diazepine-6,1′-cyclopropan]-4(5H)-one]", "melting point": "212 to 220"},
      {"molecule": "CN1C(=O)c2cc(-c3ccccc3)cn2-c2cc(-c3cccnc3)ccc2C12CC2", "note": "(as salt: hydrochloride) [Example 93, 5-Methyl-2-phenyl-9-pyridin-3-yl-spiro[benzo[f]pyrrolo[1,2-a][1,4]diazepine-6,1′-cyclopropan]-4(5H)-one]", "melting point": "218 to 222"},
      {"molecule": "Cc1ccnc(C)c1-c1ccc2c(c1)-n1cccc1C(=O)N(C)C21CC1", "note": "(as salt: hydrochloride) [Example 65, 5-Methyl-9-(2,4-dimethylpyridin-3-yl)-spiro[benzo[f]pyrrolo[1,2-a][1,4]diazepine-6,1′-cyclopropan]-4(5H)-one]", "melting point": "200 to 208"},
      {"molecule": "COCc1cc2n(c1)-c1cc(-c3ccc(C)nc3)ccc1C1(CC1)N(C)C2=O", "note": "(as salt: hydrochloride) [Example 205]", "melting point": "113 to 123"},
      {"molecule": "CN1C(=O)c2cccn2-c2cc(-c3ccc(N4CCOCC4)nc3)ccc2C12CC2", "note": "(as salt: hydrochloride) [Example 42, 5-Methyl-9-(6-morpholin-4-yl-pyridin-3-yl)-spiro[benzo[f]pyrrolo[1,2-a][1,4]diazepine-6,1′-cyclopropan]-4(5H)-one]", "melting point": "191 to 199"}
    ]}
  ]
}
